Data: patent publication US10336684B2, “Phenyl-(aza)cycloalkyl carboxylic acid GPR120 modulators” (BRISTOL-MYERS SQUIBB COMPANY, priority 2014, dated 2019)

Biological target: human GPR120 (Homo sapiens (Human), UniProt Q5NUL3)
Assay: GPR120 pERK AlphaScreen SureFire assay (human GPR120 pERK assay)
Format: cell-based
Settings: CHOA12 or CHO-K1 cells stably transfected with short form of human GPR120, 100% = 50 μM linolenic acid
Excerpt: GPR120 activity was monitored by measuring phosphorylation of ERK (pERK), since G protein receptors are known to activate the ERK signaling cascade either directly and/or through recruitment of arrestin that serves as a scaffold for downstream signaling events.
GPR120 pERK AlphaScreen SureFire Assay
The human and mouse GPR120-mediated intracellular phosphorylated ERK assays were established using CHOA12 cells stably transfected with the short form of human or mouse GPR120 receptor. Cells were cultured in growth medium consisting of F-12 media (Invitrogen Cat. #11765) with 5% Charcoal/Dextran FBS (Invitrogen Cat. #12676-029), 500 μg/mL GENETICIN® (Life Technologies Cat. #10131-027) and 250 μg/mL Zeocin (Invitrogen Cat. #R250-01). Cells were cryo preserved at a concentration of 2×10^7 cells/mL, in 90% Charcoal/Dextran FBS and 10% DMSO, and frozen in liquid nitrogen at a low passage number.
For the pERK assay, 2×10^7 cells/mL cryopreserved human and mouse cells were thawed rapidly in a 37° C. water bath and added to a T-225 flask containing 50 mL growth medium. The flasks were placed in a tissue culture incubator overnight (37° C., 5% CO2). The next day, cells were harvested with trypsin (Gibco Cat. #25300-054), resuspended in serum-containing growth medium and counted using a Cellometer and volume adjusted to a concentration of 0.6×10^6 cells/mL. Cells were plated into 384-well clear bottom tissue culture plates (BD Cat. #353962) at 50 μL/well, for a density of 30,000 cells/well using a MULTIDROP® and incubated for 16-18 hours (overnight) at 37° C. with 5% CO2. The next day, cells were serum starved in 30 μL of F-12 media without any serum or antibiotics for 2 hours at 37° C.
Test compounds were 3-fold, 11-point serially diluted in DMSO in a REMP assay plate (Matrix Cat. #4307) by Tecan and 5 μL was transferred into an ECHO source plate (Labcyte Cat. #LC-0200). Cells were then stimulated with 50 nL of compound dilutions using ECHO liquid handler for 7 minutes at 37° C. Compounds ranged from final assay concentrations of 33.33 μM to 0.56 nM.
The media was then dumped and cells lysed with 20 μL of 1× Lysis buffer from the AlphaScreen SureFire Phospho-ERK 1/2 Kit (Perkin Elmer Cat. #6760617M). The lysis buffer was diluted 5-fold with water before use. The plate was agitated on a shaker for 10 minutes after which 2 μL was transferred into a 384-well white proxiplate (Perkin Elmer Cat. #6008289). The SureFire assay reagent mix was prepared by mixing 60 parts Reaction Buffer, 10 parts Activation Buffer, 1 part Donor Beads, 1 part Acceptor Beads (Perkin Elmer Cat. #TGRES10K). 3.5 μL/well of this reagent mix was manually added to the proxiplate with a multichannel pipettor. Plates were spun down at 1000 rpm for 2 minutes, followed by light-protected incubation at room temperature for 2 hours. The plates were read on the Alpha-technology compatible Envision multilabel plate reader using AlphaScreen protocol according to manufacturer's specifications. The agonist effect of compounds was expressed as 100×(average sample-average blank)/(average total−average blank) where sample is the luminescence activity in the presence of test compound, blank is equal to the luminescence activity in the presence of DMSO control and the total is signal induced by 50 μM linolenic acid as reference compound. Activation data for the test compound over a range of concentrations was plotted as percentage activation of the test compound (100%=maximum response). After correcting for background, EC50 values were determined. The EC50 is defined as the concentration of test compound which produces 50% of the maximal response and was quantified using the 4 parameter logistic equation to fit the data.
The human and mouse GPR120-mediated intracellular phosphorylated ERK assays were also established using CHO-K1 cells stably transfected with the short form of human or mouse GPR120 receptor. […]

Chain of human GPR120 (Q5NUL3 whole entry): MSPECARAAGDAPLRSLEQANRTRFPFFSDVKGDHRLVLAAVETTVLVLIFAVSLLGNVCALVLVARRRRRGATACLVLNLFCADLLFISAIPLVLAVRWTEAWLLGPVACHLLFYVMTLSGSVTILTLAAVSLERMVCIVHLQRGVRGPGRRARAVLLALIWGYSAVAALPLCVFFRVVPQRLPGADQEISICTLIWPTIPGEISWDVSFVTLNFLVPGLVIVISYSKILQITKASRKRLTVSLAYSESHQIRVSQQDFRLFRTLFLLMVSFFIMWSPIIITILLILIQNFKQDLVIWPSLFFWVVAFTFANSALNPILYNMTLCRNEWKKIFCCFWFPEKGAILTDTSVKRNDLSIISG

**Q.** How did the EC50 turn out when O=C(O)[C@@H]1C[C@H]1CCc1ccc(N2CCC[C@H](Oc3ccc(F)cc3)C2)cc1 [Example 52] was run?
**A.** Its EC50 is 1.54 µM.

**Q.** How did the EC50 turn out when O=C(O)[C@H]1C[C@@H]1CCc1ccc(N2CCC[C@@H](c3ccccc3)C2)cc1 [Example 53] was run?
**A.** The EC50 was 3.61 µM.

**Q.** O=C(O)[C@H]1C[C@@H]1CCc1ccc(N2CCC[C@H](c3ccccc3)C2)cc1 [Example 54] was tested. Which EC50 did it give?
**A.** Its EC50 is 1.34 µM.

**Q.** O=C(O)[C@@H]1C[C@H]1CCc1ccc(N2CCC[C@@H](c3ccccc3)C2)cc1 [Example 55] was tested. Which EC50 did it give?
**A.** Its EC50 is 6.26 µM.

**Q.** How did the EC50 turn out when O=C(O)[C@@H]1C[C@H]1CCc1ccc(N2CCC[C@H](c3ccccc3)C2)cc1 [Example 56] was run?
**A.** Its EC50 is 4.84 µM.

**Q.** With O=C(O)COCCc1ccc(N2CCCC(c3ccccc3)C2)cc1 (stereo not drawn) [Example 57] as the compound, how does the EC50 read?
**A.** The EC50 was 2.26 µM.

**Q.** Which EC50 does the source give for O=C(O)CCCCc1ccc(N2CCC(Oc3ccccc3)CC2)cc1 [Example 58] here?
**A.** The EC50 was 4.09 µM.

**Q.** With O=C(O)COCCc1ccc(N2CCC(Oc3ccccc3)C2)cc1 (stereo not drawn) [Example 59] as the compound, how does the EC50 read?
**A.** The EC50 was 5.27 µM.

**Q.** With O=C(O)CCCCc1ccc(N2CC[C@H](Oc3ccccc3)C2)cc1 [Example 60] as the compound, how does the EC50 read?
**A.** The EC50 was 0.22 µM.

**Q.** Which EC50 does the source give for O=C(O)CCCCc1ccc(N2CC[C@@H](Oc3ccccc3)C2)cc1 [Example 61] here?
**A.** The EC50 was 3.38 µM.

**Q.** Which EC50 does the source give for O=C(O)[C@@H]1C[C@H]1CCc1ccc(N2CCCC(Oc3ccccc3)CC2)cc1 (stereo partly drawn) [Example 62] here?
**A.** Its EC50 is 10.3 µM.

**Q.** For O=C(O)COCCc1ccc(N2CC(Oc3ccccc3)C2)cc1 [Example 63], which EC50 is on record?
**A.** Its EC50 is 4.32 µM.
